Laboratory results reported in patent US10233173B2, “Substituted 1,2,3-triazoles as NR2B-selective NMDA modulators” (JANSSEN PHARMACEUTICA NV, priority 2016, dated 2019).

Target: human GluN1/GluN2B NMDA receptors (Homo sapiens, UniProt Q05586+Q13224)
Assay: Cell-based calcium flux (FLIPR) assay on cloned human NR1/NR2B ion channels expressed in mammalian cells
Settings: standard assay; glutamate at ~EC80; FLIPR calcium flux
Procedure, shortened: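 Calcium influx followed by FLIPR fluorescence after 5 min compound exposure and a further 5 min co-agonist challenge: 10 μM glycine with glutamate at ~EC80 (standard) or EC40 (HTS).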

Sequence of human GluN1/GluN2B NMDA receptors (Q13224 27-1484, other chains not shown): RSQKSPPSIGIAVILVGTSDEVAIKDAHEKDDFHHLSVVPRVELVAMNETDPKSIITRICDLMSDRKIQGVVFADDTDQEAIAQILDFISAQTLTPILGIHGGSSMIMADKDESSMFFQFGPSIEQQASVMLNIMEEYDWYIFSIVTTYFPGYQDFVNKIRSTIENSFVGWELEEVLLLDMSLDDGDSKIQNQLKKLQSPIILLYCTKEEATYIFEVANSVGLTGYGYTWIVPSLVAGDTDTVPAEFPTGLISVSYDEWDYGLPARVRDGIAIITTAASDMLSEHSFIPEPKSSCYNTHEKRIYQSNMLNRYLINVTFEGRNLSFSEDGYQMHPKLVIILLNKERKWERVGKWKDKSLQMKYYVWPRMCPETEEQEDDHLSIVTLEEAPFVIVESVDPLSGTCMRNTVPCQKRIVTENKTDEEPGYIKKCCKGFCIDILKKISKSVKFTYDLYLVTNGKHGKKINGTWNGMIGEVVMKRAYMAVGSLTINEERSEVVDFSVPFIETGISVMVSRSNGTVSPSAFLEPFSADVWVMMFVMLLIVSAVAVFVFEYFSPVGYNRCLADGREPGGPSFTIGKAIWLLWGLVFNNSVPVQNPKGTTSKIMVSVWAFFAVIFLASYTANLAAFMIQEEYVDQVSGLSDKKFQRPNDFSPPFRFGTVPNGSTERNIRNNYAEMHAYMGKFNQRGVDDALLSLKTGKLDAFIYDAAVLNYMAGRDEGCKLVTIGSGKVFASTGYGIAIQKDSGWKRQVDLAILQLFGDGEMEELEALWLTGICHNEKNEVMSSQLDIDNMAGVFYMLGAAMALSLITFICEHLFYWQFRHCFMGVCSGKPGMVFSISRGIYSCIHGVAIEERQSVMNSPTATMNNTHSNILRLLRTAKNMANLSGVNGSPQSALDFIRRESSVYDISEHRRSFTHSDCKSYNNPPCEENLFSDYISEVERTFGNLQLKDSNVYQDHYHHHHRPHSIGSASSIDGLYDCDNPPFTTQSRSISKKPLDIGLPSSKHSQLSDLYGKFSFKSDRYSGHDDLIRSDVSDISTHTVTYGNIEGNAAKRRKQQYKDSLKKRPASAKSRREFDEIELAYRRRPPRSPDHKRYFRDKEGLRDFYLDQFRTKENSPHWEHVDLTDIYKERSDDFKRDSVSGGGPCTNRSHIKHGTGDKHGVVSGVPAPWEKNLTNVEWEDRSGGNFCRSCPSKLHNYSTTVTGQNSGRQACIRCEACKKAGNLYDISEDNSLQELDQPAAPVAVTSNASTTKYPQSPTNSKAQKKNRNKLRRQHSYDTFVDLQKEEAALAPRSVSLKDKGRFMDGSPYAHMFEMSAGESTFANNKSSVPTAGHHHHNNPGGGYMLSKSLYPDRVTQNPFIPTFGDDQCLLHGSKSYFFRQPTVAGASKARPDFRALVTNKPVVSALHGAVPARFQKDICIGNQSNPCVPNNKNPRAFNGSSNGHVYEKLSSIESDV

`Cc1cnc(OCc2nnn(-c3ccc(F)c(C(C)(F)F)c3)c2C)nc1C` [Example 595, 2-[[1-[3-(1,1-Difluoroethyl)-4-fluoro-phenyl]-5-methyl-triazol-4-yl]methoxy]-4,5-dimethyl-pyrimidine] and `Cc1nc(OCc2nnn(-c3ccc(F)c(C(C)(F)F)c3)c2C)ncc1Cl` [Example 596, 5-Chloro-2-[[1-[3-(1,1-difluoroethyl)-4-fluoro-phenyl]-5-methyl-triazol-4-yl]methoxy]-4-methyl-pyrimidine] are within 1.5-fold of each other in IC50: 0.706 µM for the first, 0.601 µM for the second.

Going from `Fc1ccc(-n2cc(COc3ncccn3)nn2)cc1F` [Example 597, 2-[[1-(3,4-Difluorophenyl)triazol-4-yl]methoxy]pyrimidine] to `Fc1ccc(-n2cc(COc3ncccn3)nn2)cc1Cl` [Example 619, 2-[[1-(3-Chloro-4-fluoro-phenyl)triazol-4-yl]methoxy]pyrimidine], the IC50 falls from 2.1 µM to 0.217 µM (9.7-fold). The second is the more potent here.

Compared with `Fc1cnc(OCc2cn(-c3ccc(F)c(F)c3)nn2)nc1` [Example 598, 2-[[1-(3,4-Difluorophenyl)triazol-4-yl]methoxy]-5-fluoro-pyrimidine], `Fc1ccc(-n2cc(COc3ncc(Cl)cn3)nn2)cc1F` [Example 600, 5-Chloro-2-[[1-(3,4-difluorophenyl)triazol-4-yl]methoxy]pyrimidine] is 6.1-fold lower in IC50: 1.45 µM for the first, 0.238 µM for the second. The second is the more potent here.

`COc1cnc(OCc2cn(-c3ccc(F)c(F)c3)nn2)nc1` [Example 599, 2-[[1-(3,4-Difluorophenyl)triazol-4-yl]methoxy]-5-methoxy-pyrimidine] and `Cc1cnc(OCc2cn(-c3ccc(F)c(F)c3)nn2)nc1` [Example 601, 2-[[1-(3,4-Difluorophenyl)triazol-4-yl]methoxy]-5-methyl-pyrimidine] are within 1.5-fold of each other in IC50: 0.034 µM for the first, 0.048 µM for the second.

Going from `CCc1cnc(OCc2cn(-c3ccc(F)c(F)c3)nn2)nc1` [Example 602, 2-[[1-(3,4-Difluorophenyl)triazol-4-yl]methoxy]-5-ethyl-pyrimidine] to `CCc1cnc(OCc2cn(-c3ccc(F)c(Cl)c3)nn2)nc1` [Example 621, 2-[[1-(3-Chloro-4-fluoro-phenyl)triazol-4-yl]methoxy]-5-ethyl-pyrimidine], the IC50 falls from 0.023 µM to 0.003 µM (7.7-fold).

Going from `Cc1cnc(OCc2cn(-c3cc(F)ccc3F)nn2)nc1` [Example 603, 2-[[1-(2,5-Difluorophenyl)triazol-4-yl]methoxy]-5-methyl-pyrimidine] to `CC(C)(O)c1cnc(OCc2cn(-c3cc(F)ccc3F)nn2)nc1` [Example 604, 2-[2-[[1-(2,5-Difluorophenyl)triazol-4-yl]methoxy]pyrimidin-5-yl]propan-2-ol], the IC50 rises from 10.4 µM to 79.7 µM (7.7-fold).

Going from `Fc1cccc(-n2cc(COc3ncc(Cl)cn3)nn2)c1F` [Example 605, 5-Chloro-2-[[1-(2,3-difluorophenyl)triazol-4-yl]methoxy]pyrimidine] to `Fc1cnc(OCc2cn(-c3cccc(F)c3F)nn2)nc1` [Example 606, 2-[[1-(2,3-Difluorophenyl)triazol-4-yl]methoxy]-5-fluoro-pyrimidine], the IC50 rises from 4.36 µM to 17.5 µM (4-fold).

Going from `Fc1cccc(-n2cc(COc3ncccn3)nn2)c1F` [Example 607, 2-[[1-(2,3-Difluorophenyl)triazol-4-yl]methoxy]pyrimidine] to `Fc1c(Cl)cccc1-n1cc(COc2ncccn2)nn1` [Example 611, 2-[[1-(3-Chloro-2-fluoro-phenyl)triazol-4-yl]methoxy]pyrimidine], the IC50 rises from 3.43 µM to over 10 µM.

First: CC(C)(O)c1cnc(OCc2cn(-c3cccc(F)c3F)nn2)nc1 [Example 608, 2-[2-[[1-(2,3-Difluorophenyl)triazol-4-yl]methoxy]pyrimidin-5-yl]propan-2-ol]
Second: CC(C)(O)c1cnc(OCc2cn(-c3cccc(Cl)c3F)nn2)nc1 [Example 615, 2-[2-[[1-(3-Chloro-2-fluoro-phenyl)triazol-4-yl]methoxy]pyrimidin-5-yl]propan-2-ol]
The IC50 of the first is higher: over 10 µM for the first, 4.66 µM for the second.

First: Cc1cnc(OCc2cn(-c3cccc(Cl)c3F)nn2)nc1 [Example 610, 2-[[1-(3-Chloro-2-fluoro-phenyl)triazol-4-yl]methoxy]-5-methyl-pyrimidine]
Second: Fc1c(Cl)cccc1-n1cc(COc2ncc(Cl)cn2)nn1 [Example 612, 5-Chloro-2-[[1-(3-chloro-2-fluoro-phenyl)triazol-4-yl]methoxy]pyrimidine]
The IC50 of the first is 1.7-fold lower: 1.03 µM for the first, 1.74 µM for the second.

Going from `Cc1nc(OCc2cn(-c3cccc(Cl)c3F)nn2)ncc1F` [Example 613, 2-[[1-(3-Chloro-2-fluoro-phenyl)triazol-4-yl]methoxy]-5-fluoro-4-methyl-pyrimidine] to `Fc1cnc(OCc2cn(-c3cccc(Cl)c3F)nn2)nc1` [Example 614, 2-[[1-(3-Chloro-2-fluoro-phenyl)triazol-4-yl]methoxy]-5-fluoro-pyrimidine], the IC50 rises from 1.44 µM to 4.03 µM (2.8-fold).

Compared with `OCc1cnc(OCc2cn(-c3ccc(F)c(Br)c3)nn2)nc1` [Example 616, [2-[[1-(3-Bromo-4-fluoro-phenyl)triazol-4-yl]methoxy]pyrimidin-5-yl]methanol], `FCCOc1cnc(OCc2cn(-c3ccc(F)c(Br)c3)nn2)nc1` [Example 618, 2-[[1-(3-Bromo-4-fluoro-phenyl)triazol-4-yl]methoxy]-5-(2-fluoroethoxy)pyrimidine] is 5-fold lower in IC50: 0.03 µM for the first, 0.006 µM for the second.

Compared with `OCc1ccnc(OCc2cn(-c3ccc(F)c(Br)c3)nn2)n1` [Example 617, [2-[[1-(3-Bromo-4-fluoro-phenyl)triazol-4-yl]methoxy]pyrimidin-4-yl]methanol], `OCc1ccnc(OCc2cn(-c3ccc(Cl)c(C(F)F)c3)nn2)n1` [Example 625, [2-[[1-[4-Chloro-3-(difluoromethyl)phenyl]triazol-4-yl]methoxy]pyrimidin-4-yl]methanol] is 2.4-fold lower in IC50: 0.041 µM for the first, 0.017 µM for the second.

First: Cc1cnc(OCc2cn(-c3ccc(F)c(Cl)c3)nn2)nc1 [Example 620, 2-[[1-(3-Chloro-4-fluoro-phenyl)triazol-4-yl]methoxy]-5-methyl-pyrimidine]
Second: COCc1ccnc(OCc2cn(-c3ccc(F)c(Cl)c3)nn2)n1 [Example 622, 2-[[1-(3-Chloro-4-fluoro-phenyl)triazol-4-yl]methoxy]-4-(methoxymethyl)pyrimidine]
The IC50 of the first is 8.2-fold lower: 0.008 µM for the first, 0.066 µM for the second.

First: CC(C)c1ccnc(OCc2cn(-c3ccc(Cl)c(C(F)F)c3)nn2)n1 [Example 623, 2-[[1-[4-Chloro-3-(difluoromethyl)phenyl]triazol-4-yl]methoxy]-4-isopropyl-pyrimidine]
Second: FC(F)c1ccnc(OCc2cn(-c3ccc(Cl)c(C(F)F)c3)nn2)n1 [Example 628, 2-[[1-[4-Chloro-3-(difluoromethyl)phenyl]triazol-4-yl]methoxy]-4-(difluoromethyl)pyrimidine]
The IC50 of the first is 3.1-fold higher: 0.129 µM for the first, 0.042 µM for the second. The second is the more potent here.

Compared with `OCc1cnc(OCc2cn(-c3ccc(Cl)c(C(F)F)c3)nn2)nc1` [Example 624, [2-[[1-[4-Chloro-3-(difluoromethyl)phenyl]triazol-4-yl]methoxy]pyrimidin-5-yl]methanol], `CC(C)(O)c1cnc(OCc2cn(-c3ccc(Cl)c(C(F)F)c3)nn2)nc1` [Example 626, 2-[2-[[1-[4-Chloro-3-(difluoromethyl)phenyl]triazol-4-yl]methoxy]pyrimidin-5-yl]propan-2-ol] is 3.4-fold higher in IC50: 0.02 µM for the first, 0.067 µM for the second. The first is the more potent here.

`COCc1ccnc(OCc2cn(-c3ccc(Cl)c(C(F)F)c3)nn2)n1` [Example 627, 2-[[1-[4-Chloro-3-(difluoromethyl)phenyl]triazol-4-yl]methoxy]-4-(methoxymethyl)pyrimidine] was tested, and the IC50 was 0.038 µM.
